From US20070249607A1, “NK-1 AND SEROTONIN TRANSPORTER INHIBITORS” (Bristol-Myers Squibb Company, priority 2006, published 2007)
Where two headings read alike, the source gives them in different places.

Columns and labels:
[1] = biological target: T1, human serotonin transporters (Homo sapiens, UniProt P31645); assay: Serotonin transporter binding assay ([3H]-citalopram competition, HEK-hSERT cell membranes)
T1 construct: expressed in transfected cells
Experimental: Serotonin transporter binding assay. HEK-293 cells that stably express human serotonin transporters (HEK-hSERT cells) were grown at 37° C. in 5% CO2 as a monolayer in medium consisting of EMEM supplemented with 10% fetal bovine serum and G418 sulfate (500 μg/ml). To prepare membranes for radioligand binding experiments, cells were rinsed twice with phosphate-buffered saline (138 mM NaCl, 4.1 mM KCl, 5.1 mM Na2PO4, 1.5 mM KH2PO4, 11.1 mM glucose, pH 7.4). Cells were transferred from plates to polypropylene tubes (16×100 mm), centrifuged at 1,200×g for 5 min and were frozen at −80° C. until assay. Following centrifugation, pellets were resuspended by homogenization in buffer consisting of 50 mM Tris (pH 7.7 at 25° C.), 120 mM NaCl and 5 mM KCl and then centrifuged at 32,000×g for 10 min. Following centrifugation, supernatants were discarded and pellets were resuspended in buffer consisting of 50 mM Tris (pH 7.4 at 25° C.), 150 mM NaCl and 5 mM KCl. Membrane homogenates (200 μl/plate) were incubated with 1 nM [^3H]-citalopram (specific activity=85 Ci/mmol) and increasing concentrations of test compounds for 1 hr at 25° C. in a total volume of 250 μl. The assay buffer consisted of 50 mM Tris (pH 7.4 at 25° C.), 120 mM NaCl and 5 mM KCl (pH 7.4 with conc. HCl). Plates were incubated for 1 hr at 25° C., then filtered through 0.5% PEI treated Whatman GF/B filters using a Brandel cell harvester. Filters were washed three times with 3 ml of ice-cold tris wash buffer. Non-specific binding was defined with 10 μM fluoxetine. Amount of radioligand bound in the presence and absence of competitor was analyzed by plotting (-)log drug concentration versus the amount of radioligand specifically bound. The midpoint of the displacement curve (IC50, nM), signifies the potency. Ki values can be calculated using the method of Cheng and Prusoff (Cheng and Prusoff, BiochemicalPharmacology, Vol 22, pp. 3099-3108, Pergamon Press (1973)).

[2] = biological target: T2, neurokinin-1 (NK-1) receptor (Homo sapiens, UniProt P25103); assay: NK-1 Binding assay ([125I] Substance P competition, U373 cell membranes); details: U373 membranes, [125I] Substance P displacement, read-out: NK-1 IC50
T2 construct: a human glioblastoma-astrocytoma cell line that endogenously expresses the neurokinin-1 (NK-1) receptor; endogenous in cells; host or cells: U373 human glioblastoma-astrocytoma cells (membranes)
T2 sequence (P25103 whole entry): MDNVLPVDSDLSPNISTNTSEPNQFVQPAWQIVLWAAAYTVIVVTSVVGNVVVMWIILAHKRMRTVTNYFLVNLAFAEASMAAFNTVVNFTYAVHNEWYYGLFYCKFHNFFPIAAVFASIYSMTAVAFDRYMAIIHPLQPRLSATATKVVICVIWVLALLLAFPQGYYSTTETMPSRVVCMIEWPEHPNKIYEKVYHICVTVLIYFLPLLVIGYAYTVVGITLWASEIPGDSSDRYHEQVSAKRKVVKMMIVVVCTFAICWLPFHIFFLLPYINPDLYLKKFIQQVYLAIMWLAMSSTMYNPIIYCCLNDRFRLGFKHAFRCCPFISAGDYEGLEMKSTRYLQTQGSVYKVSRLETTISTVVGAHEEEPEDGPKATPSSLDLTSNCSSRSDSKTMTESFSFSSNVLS
Experimental: NK-1 Binding assay. U373 cells, a human glioblastoma-astrocytoma cell line that endogenously expresses the neurokinin-1 (NK-1) receptor, were grown in a monolayer culture at 37° C. in 5% CO2 and fed with Minimum Essential Medium (MEM) supplemented with 10% fetal bovine serum. Membranes were prepared as follows: Cells were washed twice with ice-cold phosphate-buffered saline (pH 7.4) and then incubated for 5-10 minutes with ice-cold 10 mM Tris buffer (pH 7.4) containing 5 mM EDTA. Cells were removed from plates, homogenized, and centrifuged at 32,000×g for 20 minutes. The resulting supernatant was discarded, and the pellet resuspended by homogenization in 50 mM Tris buffer (pH 7.4) containing 1 mM EDTA and centrifuged at 32,000×g for 20 minutes. The resulting supernatant was discarded, and the pellet resuspended by homogenization in NK-1 binding assay buffer (50 mM Tris-HCL (pH 7.4), 3 mM MnCl2, 200 μg/ml BSA, 5 μg/ml chymostatin, 40 μg/ml bacitracin and 4 μg/ml leupeptin).
On the day of an experiment the membrane preparation was thawed, homogenized and diluted with NK-1 binding assay buffer to the appropriate concentration. […] Substance P, at a concentration of […], and concentrations of drugs ranging from 10000 to 0.01 nM. Samples were incubated for 30 min at 20° C. then filtered through GF/B glass fiber filters (pretreated with 1% polyethyleneimine and 0.3% Triton X-100) using a Brandel cell harvester. The filters were then washed with 10 ml ice cold 50 mM Tris-HCL (pH 7.4) containing 3 mM MgCl2. […] The amount of radioligand bound in the presence and absence of competitor was analyzed by plotting (-)log drug concentration versus the amount of radioligand specifically bound. The midpoint of the displacement curve (IC50, nM), signifies the potency.

[3] = Table 2, HEK-hSERT membranes, [3H]-citalopram displacement, read-out: SERT IC50
[4] = Table 1, HEK-hSERT membranes, [3H]-citalopram displacement, read-out: SERT IC50

T1 sequence (P31645 whole entry): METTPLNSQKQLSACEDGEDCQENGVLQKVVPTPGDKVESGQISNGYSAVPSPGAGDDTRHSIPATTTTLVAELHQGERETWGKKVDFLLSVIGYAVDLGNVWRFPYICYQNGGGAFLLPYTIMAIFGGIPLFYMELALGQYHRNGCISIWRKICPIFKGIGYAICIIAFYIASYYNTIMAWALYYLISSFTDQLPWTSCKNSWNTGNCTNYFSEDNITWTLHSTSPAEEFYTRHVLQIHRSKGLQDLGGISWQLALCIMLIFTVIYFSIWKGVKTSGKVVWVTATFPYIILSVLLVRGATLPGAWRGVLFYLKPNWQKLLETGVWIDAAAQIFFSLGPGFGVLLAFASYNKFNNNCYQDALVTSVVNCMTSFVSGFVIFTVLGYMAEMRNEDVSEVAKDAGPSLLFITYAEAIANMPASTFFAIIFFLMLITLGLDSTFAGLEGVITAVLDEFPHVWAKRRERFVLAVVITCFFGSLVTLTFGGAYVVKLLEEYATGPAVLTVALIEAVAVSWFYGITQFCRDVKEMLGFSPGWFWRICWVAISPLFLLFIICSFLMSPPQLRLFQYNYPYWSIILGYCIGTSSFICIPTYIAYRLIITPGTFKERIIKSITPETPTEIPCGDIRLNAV

Row | IC50 [1, 3] [nM] | IC50 ([2]; Table 2) [nM] | IC50 [1, 4] [nM] | IC50 ([2]; Table 1) [nM] | Compound | IC50 [1] [nM]
1 | 0.01 to 100 | 0.01 to 100 |  |  | CC(=O)Nc1ccc(-c2cc(COCC3(c4ccccc4)CCNCC3)cc(C(F)(F)F)c2)cc1 | 
2 | 0.01 to 100 | 0.01 to 100 |  |  | N#Cc1ccc(-c2cc(COCC3(c4ccc(F)cc4C#N)CCNCC3)cc(C(F)(F)F)c2)cc1 | 
3 |  |  | 100 to 300 | 100 to 300 | FC(F)(F)c1cc(COCC2(c3ccccc3)CCNCC2)cc(-c2ccc3ccccc3c2)c1 | 
4 | 0.01 to 100 | 0.01 to 100 |  |  | Fc1ccc(F)c(-c2cc(COCC3(c4ccccc4)CCNCC3)cc(C(F)(F)F)c2)c1 | 
5 |  |  | 0.01 to 100 | 0.01 to 100 | Oc1ccc(-c2cc(COCC3(c4ccccc4)CCNCC3)cc(C(F)(F)F)c2)cc1 | 
6 | 100 to 300 | 0.01 to 100 |  |  | N#Cc1ccc(-c2cc(COCC3(c4ccc(F)cc4-c4ccccc4)CCNCC3)cc(C(F)(F)F)c2)cc1 | 
7 | 0.01 to 100 | > 300 |  |  | CC(C)c1ccc(-c2cc(COCC3(c4ccccc4)CCNCC3)cc(C(F)(F)F)c2)cc1 | 
8 | 0.01 to 100 | 0.01 to 100 |  |  | N#Cc1ccc(-c2cc(COCC3(c4ccc(F)c(F)c4)CCNCC3)cc(C(F)(F)F)c2)cc1 | 
9 | 0.01 to 100 | 100 to 300 |  |  | COc1ccc(F)cc1-c1cc(COCC2(c3ccccc3)CCNCC2)cc(C(F)(F)F)c1 | 
10 |  |  | 0.01 to 100 | 0.01 to 100 | C[C@@H](OCC1(c2ccccc2)CCNCC1)c1cc(-c2ccc(C#N)cc2)cc(C(F)(F)F)c1 | 

The remaining lines, values behind:

Row | Compound | IC50 [1, 3] [nM] | IC50 ([2]; Table 2) [nM] | IC50 [1, 4] [nM] | IC50 ([2]; Table 1) [nM] | IC50 [1] [nM]
11 | Fc1cnc(Cl)c(-c2cc(COCC3(c4ccccc4)CCNCC3)cc(C(F)(F)F)c2)c1 | 0.01 to 100 | 100 to 300 |  |  | 
12 | CCOc1ccc2cc(-c3cc(COCC4(c5ccccc5)CCNCC4)cc(C(F)(F)F)c3)ccc2c1 | 0.01 to 100 | 100 to 300 |  |  | 
13 | COc1cc(-c2cc(COCC3(c4ccccc4)CCN(C)CC3)cc(C(F)(F)F)c2)ccc1C#N |  | 0.01 to 100 |  |  | 0.01 to 100
14 | CN(C)C(=O)c1cc(COCC2(c3ccccc3)CCNCC2)cc(-c2ccc(C#N)cc2)c1 | 0.01 to 100 | > 300 |  |  | 
15 | Cn1nc(C(F)(F)F)cc1-c1cc(COCC2(c3ccccc3)CCNCC2)cc(C(F)(F)F)c1 |  |  | 0.01 to 100 | > 300 | 
16 | Fc1ccccc1-c1cc(COCC2(c3ccccc3)CCNCC2)cc(C(F)(F)F)c1 |  |  | 0.01 to 100 | 0.01 to 100 | 
17 | Cc1ccc(-c2cc(COCC3(c4ccccc4)CCNCC3)cc(C(F)(F)F)c2)cc1[N+](=O)[O-] |  |  | 0.01 to 100 | 0.01 to 100 | 
18 | FC(F)(F)c1cc(COCC2(c3ccccc3)CCNCC2)cc(-c2ccccc2Cl)c1 |  |  | 0.01 to 100 | 0.01 to 100 | 
19 | CN1CCC(COCc2cc(-c3ccc(C#N)cc3)cc(C(F)(F)F)c2)(c2ccc(F)cc2)CC1 |  |  |  | 0.01 to 100 | 0.01 to 100
20 | Cc1ccccc1-c1cc(COCC2(c3ccccc3)CCNCC2)cc(C(F)(F)F)c1 |  |  | 0.01 to 100 | 100 to 300 | 
21 | CN1CCC(COCc2cc(-c3ccc(C#N)cc3)cc(C(F)(F)F)c2)(c2ccc(F)c(F)c2)CC1 |  | 0.01 to 100 |  |  | 0.01 to 100
22 | CN1CCC(COCc2cc(-c3ccc(C#N)cc3)cc(C(F)(F)F)c2)(c2ccncc2)CC1 |  | 0.01 to 100 |  |  | 0.01 to 100
23 | FC(F)(F)c1cc(COCC2(c3ccccc3)CCNCC2)cc(-c2c(C(F)(F)F)cccc2C(F)(F)F)c1 | 0.01 to 100 | 0.01 to 100 |  |  | 
24 | FC(F)(F)c1cc(COCC2(c3ccccc3)CCNCC2)cc(-c2ccccc2)c1 |  |  | 0.01 to 100 | 0.01 to 100 | 
25 | Cc1cc(C)c(-c2cc(COCC3(c4ccccc4)CCNCC3)cc(C(F)(F)F)c2)c(C)c1 |  |  | > 300 | > 300 | 
26 | CN1CCC(COCc2cc(F)cc(-c3ccc(F)cc3)c2)(c2ccccc2)CC1 |  | 100 to 300 |  |  | 0.01 to 100
